These results are taken from US8932610B2, “Aqueous clear solutions of fluocinolone acetonide for treatment of otic inflammation” (Laboratorios Salvat, S.A., priority 2010, dated 2015).

Molecules are shown by their SMILES. Structures can show the parent of a compound that is named as a salt.

Data set [1] in a line: Concentration of active ingredient before and after filtration through 0.22 μm filter. It counts as physicochemical.
The conditions of data set [2]: cited from earlier work.
[3] abbreviates: Batch 1, after filtration (0.22 μm filter).
The mark [4] stands for this setting: Batch 1, before filtration (0.22 μm filter).
The mark [5] stands for this setting: Batch 2, after filtration (0.22 μm filter).
Where [6] appears, read: Batch 2, before filtration (0.22 μm filter).

As for `O=C(O)c1cn(C2CC2)c2cc(N3CCNCC3)c(F)cc2c1=O` [Ciprofloxacin HCl], the “% of theoretical” value in data set [1] (setting [3]) amounted to 97.7%; in data set [1] (setting [4]), 98.0%; in data set [1] (setting [5]), 98.0%; in data set [1] (setting [6]), 98.0%. In addition, the Concentration in data set [1] (setting [3]) is listed as 0.341%; in data set [1] (setting [4]) it was 0.342%; in data set [1] (setting [5]), 0.342%; in data set [1] (setting [6]), 0.342%.
As to `CC1(C)O[C@@H]2C[C@H]3[C@@H]4C[C@H](F)C5=CC(=O)C=C[C@]5(C)[C@@]4(F)[C@@H](O)C[C@]3(C)[C@]2(C(=O)CO)O1` [Fluocinolone Acetonide], the “% of theoretical” value in data set [1] (setting [3]), in data set [1] (setting [4]), in data set [1] (setting [5]) and in data set [1] (setting [6]) was 100.0% each time. The Concentration in data set [1] (setting [3]), in data set [1] (setting [4]), in data set [1] (setting [5]) and in data set [1] (setting [6]) was 0.025% throughout. Moreover, in data set [2], the Solubility in water result was “virtually insoluble in water”.
